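Interpolation was linear, between the two tested concentrations surrounding the appropriate level; five concentrations were tested over 48 hours in 96-well plates. GI50 is the concentration that inhibits growth by half. TGI is the concentration that stops growth completely.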
Legend:
Experiment in all cases: growth of human tumour cells (NCI), 48 h
K-562 leukemia = system: K-562 leukemia
OVCAR-5 ovarian = system: OVCAR-5 ovarian
HL-60(TB) leukemia = system: HL-60(TB) leukemia
HCT-116 colon = system: HCT-116 colon
HOP-62 NSCLC = system: HOP-62 NSCLC
ACHN renal = system: ACHN renal
IGROV1 ovarian = system: IGROV1 ovarian
NCI-H522 lung = system: NCI-H522 lung
RXF 393 renal = system: RXF 393 renal

SMILES | GI50 (K-562 leukemia) [µM] | TGI (K-562 leukemia) [µM] | GI50 (OVCAR-5 ovarian) [µM] | TGI (OVCAR-5 ovarian) [µM] | GI50 (HL-60(TB) leukemia) [µM] | TGI (HL-60(TB) leukemia) [µM] | GI50 (HCT-116 colon) [µM] | TGI (HCT-116 colon) [µM] | GI50 (HOP-62 NSCLC) [µM] | TGI (HOP-62 NSCLC) [µM] | GI50 (ACHN renal) [µM] | TGI (ACHN renal) [µM] | GI50 (IGROV1 ovarian) [µM] | TGI (IGROV1 ovarian) [µM] | GI50 (NCI-H522 lung) [µM] | TGI (NCI-H522 lung) [µM] | GI50 (RXF 393 renal) [µM] | TGI (RXF 393 renal) [µM]
CCCC(=O)OCC1OC(n2cnc3c(=S)nc[nH]c32)C(OC(=O)CCC)C1OC(=O)CCC (stereo not given) | 1.7 | > 100 | 4.76 | > 100 | 2.6 | 9.96 | 4 | > 100 | 2.84 | > 100 | 6.15 | > 100 | 10.3 | > 100 | 4.62 | > 100 | 26 | > 100
O=C(O)c1nn(-c2ccccc2-c2n[nH]c(=O)[nH]c2=O)c(=O)[nH]c1=O |  | > 100 |  | > 100 |  | > 100 |  | > 100 |  | > 100 |  | > 100 |  | > 100 |  | > 100 |  | > 100
O=C(O)CCNC1CCCCC1 | > 100 | > 100 | > 100 | > 100 | > 100 | > 100 | > 100 | > 100 | > 100 | > 100 | > 100 | > 100 | > 100 | > 100 | > 100 | > 100 | > 100 | > 100
O=S(=O)(NC1=NCCN1C(=S)SN1CCn2c1nsc2=S)c1cccc(Cl)c1 | 13.4 | > 100 | 19.7 | 39.2 | 13.1 | 80.5 | 13.2 | 28.1 | 18.5 | 37.6 | 13.8 | 30.6 | 12.4 | 36.8 | 5.58 | 18.4 | 4.04 | 21.6
O/N=C/c1ncccc1C1OCCO1 |  | > 100 |  | > 100 |  | > 100 |  | > 100 |  | > 100 |  | > 100 |  | > 100 |  | > 100 |  | > 100
Cc1ccc2c(c1)Sc1c(ccc3ccccc13)N2 | 11.2 | > 100 | > 100 | > 100 | 34.2 | > 100 | 8.37 | > 100 | > 100 | > 100 | 55.5 | > 100 | 6.48 | > 100 | > 100 | > 100 | > 100 | > 100
CC(=O)OCC1OC(NC(=S)N/N=C2\CC(c3ccccc3)Oc3ccccc32)C(OC(C)=O)C(OC(C)=O)C1OC(C)=O (stereo not given) |  | > 100 |  | > 100 |  | > 100 |  | > 100 |  | > 100 |  | > 100 |  | > 100 |  | > 100 |  | > 100
COC(=O)Nc1nc2ccc(Oc3ccc(NC(=O)Nc4cc(C(F)(F)F)ccc4F)cc3)cc2s1 | 0.0202 | > 25 | > 25 | > 25 | > 13.5 | > 25 | 8.8 | > 25 | 16.7 | > 25 | > 25 | > 25 | > 25 | > 25 | > 25 | > 25 | > 25 | > 25
O=C1NC(=O)C(CCC(=O)c2ccc3ccccc3c2)C(=O)N1 |  | > 100 |  | > 100 |  | > 100 |  | > 100 |  | > 100 |  | > 100 |  | > 100 |  | 38.5 |  | > 100
COc1ccc(-c2onc(N)c2-c2cc(OC)c3c(c2)OCO3)cc1 | 0.473 | > 100 | 6.74 | > 94 | 1.87 | 7.53 | 2.32 | 50 | 4.53 | > 100 | 6.39 | > 100 | 8.44 | > 100 | 1.07 | 5.39 | 2.71 | 19
O=C1CCC(N2C(=O)c3ccccc3C2=O)C(=O)N1CO (stereo not given) | > 100 | > 100 | > 100 | > 100 | 32.2 | 89.5 | 21.2 | 45.4 | > 100 | > 100 | 95.2 | > 100 | 52.5 | > 100 | > 100 | > 100 | 43 | > 100
CCN(CC)C(c1ccc(N(C)C)cc1)C(c1ccc(N(C)C)cc1)N(CC)CC (stereo not given) |  | > 73 |  | > 73 |  | 38.3 |  | > 73 |  | > 73 |  | > 73 |  | > 73 |  | > 7.3 |  | > 73
C/C(O)=C(\N=O)C(=O)Nc1ccc(Cl)cc1Cl |  | > 100 |  | > 100 |  | > 100 |  | > 100 |  | > 100 |  | > 100 |  | > 100 |  | > 100 |  | > 100
NC1=NC(c2ccccc2)CC(c2cc(Cl)ccc2O)=N1 (stereo not given) |  | 40.8 |  | 34.6 |  | 40.1 |  | 27.6 |  | 30.2 |  | 29.4 |  | 42.1 |  | 29 |  | 32.9
O=C1Nc2ccccc2C1(c1ccc(O)cc1)c1ccc(O)cc1 | 29.2 | > 100 | 25.6 | 81.5 | 22.9 | 63 | 14.5 | 31.6 | 20.5 | 53.1 | 17.9 | > 100 | 10.2 | 39.3 | 17.2 | 43.4 | 0.445 | 13.4
COc1cc2ncn(-c3cc(OCc4cccs4)c(C(N)=O)s3)c2cc1OC | 1.14 | > 25 | 2.55 | > 25 | 0.804 | 8.73 | 1.68 | > 25 | 1.53 | > 25 | 6.39 | > 25 | 2.75 | > 25 | 0.924 | > 12.5 | 1.31 | > 15.7

— PubChem BioAssay (NCI)
